# Laboratory results as given in the supplement of paper PMC11451515.
# Test system: P12-Ichikawa
# Assay: cell viability relative to DMSO control; higher = less cytotoxic
# Settings: 48 h
# In short: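 In 1536-well plates, 5 μl of leukemia cells were seeded per well: 500 cells/well for NOMO1 or SEM and 1000 cells/well for P12-Ichikawa. Each line had first been adapted for at least four passages in each medium. Library compounds in DMSO were pin-dosed at 11 threefold concentrations between 47 μM and 0.79 nM, and CellTiter-Glo One luminescence was read after 48 h at 37°C. Viability is a per-plate percentage relative to DMSO wells, with cell-free wells as background.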
# [1] = RPMI 5 mM glucose + 10% dialyzed FBS, 0.000781 µM
# [2] = RPMI 5 mM glucose + 10% dialyzed FBS, 0.00234 µM
# [3] = RPMI 5 mM glucose + 10% dialyzed FBS, 0.00702 µM
# [4] = RPMI 5 mM glucose + 10% dialyzed FBS, 0.0211 µM
# [5] = RPMI 5 mM glucose + 10% dialyzed FBS, 0.0632 µM
# [6] = RPMI 5 mM glucose + 10% dialyzed FBS, 0.19 µM
# [7] = RPMI 5 mM glucose + 10% dialyzed FBS, 0.569 µM
# [8] = RPMI 5 mM glucose + 10% dialyzed FBS, 1.71 µM
# [9] = RPMI 5 mM glucose + 10% dialyzed FBS, 5.12 µM
# [10] = RPMI 5 mM glucose + 10% dialyzed FBS, 15.4 µM
# [11] = RPMI 5 mM glucose + 10% dialyzed FBS, 46.1 µM
# [12] = HPLM + 10% dialyzed FBS, 0.000781 µM
# [13] = HPLM + 10% dialyzed FBS, 0.00234 µM
# [14] = HPLM + 10% dialyzed FBS, 0.00702 µM
# [15] = HPLM + 10% dialyzed FBS, 0.0211 µM
# [16] = HPLM + 10% dialyzed FBS, 0.0632 µM
# [17] = HPLM + 10% dialyzed FBS, 0.19 µM
# [18] = HPLM + 10% dialyzed FBS, 0.569 µM
# [19] = HPLM + 10% dialyzed FBS, 1.71 µM
# [20] = HPLM + 10% dialyzed FBS, 5.12 µM
# [21] = HPLM + 10% dialyzed FBS, 15.4 µM
# [22] = HPLM + 10% dialyzed FBS, 46.1 µM
# [23] = RPMI 5 mM glucose + 10% FBS, 0.000781 µM
# [24] = RPMI 5 mM glucose + 10% FBS, 0.00234 µM
# [25] = RPMI 5 mM glucose + 10% FBS, 0.00702 µM
# [26] = RPMI 5 mM glucose + 10% FBS, 0.0211 µM
# [27] = RPMI 5 mM glucose + 10% FBS, 0.0632 µM
# [28] = RPMI 5 mM glucose + 10% FBS, 0.19 µM
# [29] = RPMI 5 mM glucose + 10% FBS, 0.569 µM
# [30] = RPMI 5 mM glucose + 10% FBS, 1.71 µM
# [31] = RPMI 5 mM glucose + 10% FBS, 5.12 µM
# [32] = RPMI 5 mM glucose + 10% FBS, 15.4 µM
# [33] = RPMI 5 mM glucose + 10% FBS, 46.1 µM
Compound,cell viability [1],cell viability [2],cell viability [3],cell viability [4],cell viability [5],cell viability [6],cell viability [7],cell viability [8],cell viability [9],cell viability [10],cell viability [11],cell viability [12],cell viability [13],cell viability [14],cell viability [15],cell viability [16],cell viability [17],cell viability [18],cell viability [19],cell viability [20],cell viability [21],cell viability [22],cell viability [23],cell viability [24],cell viability [25],cell viability [26],cell viability [27],cell viability [28],cell viability [29],cell viability [30],cell viability [31],cell viability [32],cell viability [33]
NCCc1ccc(O)c(O)c1,128%,124%,123%,126%,131%,123%,129%,121%,121%,124%,110%,–,–,–,–,–,–,–,–,–,–,–,–,–,–,–,–,–,–,–,–,–,–
Cc1nc(N)ncc1-c1nc(N2CCOCC2)c2sc(C(C)(C)O)cc2n1,124%,118%,125%,120%,122%,118%,13.2%,8.68%,7.11%,6.92%,5.85%,125%,122%,119%,113%,83%,10.9%,7.79%,5.43%,4.61%,4.97%,4.1%,116%,122%,114%,120%,116%,121%,18.5%,7.92%,6.16%,5.72%,5.39%
Oc1ccc2ccccc2c1SSc1c(O)ccc2ccccc12,88.3%,98.9%,95.5%,109%,99.2%,104%,105%,103%,98.3%,94.3%,52.3%,98.4%,100%,105%,108%,106%,109%,110%,109%,109%,105%,94.2%,105%,114%,106%,107%,101%,109%,116%,109%,106%,101%,62.2%
COc1cc(Cl)cn2c(-c3cccc(NC4CNC4)n3)cnc12,–,–,–,–,–,–,–,–,–,–,–,125%,121%,131%,125%,129%,130%,131%,135%,129%,127%,139%,–,–,–,–,–,–,–,–,–,–,–
CN(C)CCOc1ccc(/C(=C(/CCCl)c2ccccc2)c2ccccc2)cc1,102%,107%,112%,111%,109%,102%,112%,80.3%,58.1%,44.1%,42.7%,102%,110%,107%,107%,106%,112%,111%,88.6%,67.2%,59.1%,34.9%,108%,109%,112%,108%,109%,102%,103%,83.1%,57.9%,50.5%,32.2%
Clc1ccccc1C(c1ccccc1)(c1ccccc1)n1ccnc1,103%,114%,112%,108%,106%,110%,103%,102%,88.6%,93.8%,58.5%,108%,114%,107%,115%,108%,110%,107%,96.7%,100%,91.7%,74.8%,–,–,–,–,–,–,–,–,–,–,–
N[C@@H](Cc1ccc(O)c(O)c1)C(=O)O,–,–,–,–,–,–,–,–,–,–,–,122%,124%,118%,119%,130%,123%,127%,122%,125%,131%,121%,–,–,–,–,–,–,–,–,–,–,–
CC(S)C(=O)NCC(=O)O (stereo not drawn),108%,105%,111%,118%,112%,112%,113%,113%,113%,120%,102%,106%,110%,118%,109%,119%,101%,129%,117%,118%,113%,106%,109%,112%,108%,119%,116%,115%,114%,126%,115%,109%,106%
COC(=O)Nc1nc2ccc([S+]([O-])c3ccccc3)cc2[nH]1 (stereo not drawn),118%,120%,117%,118%,124%,118%,128%,122%,117%,95%,97.4%,109%,119%,111%,114%,111%,116%,122%,119%,95.5%,55.5%,86%,100%,115%,103%,119%,118%,120%,115%,135%,110%,74.4%,92.4%
C[N]1N=CC=C1C/2=C(\C)N(C(=O)C(=C2)/C(=O)NCC3=NC=C(C=C3)[S+](C)([O-])=O)C4=CC=CC(=C4)C(F)(F)F,108%,105%,112%,105%,106%,95%,110%,103%,102%,91.7%,97.5%,107%,104%,106%,104%,107%,107%,105%,101%,98.3%,96.8%,88.5%,105%,102%,109%,109%,112%,93%,106%,97.3%,92%,91.1%,99.2%
